Columns and labels:
MITF = assay: expression level of mRNA of MITF in melanocytes (real-time RT-PCR); assay type: cell-based
Protocol: (§1) 1.4×10^5 melanocytes were inoculated in wells of 6-well culture plate, and a medium 254 (produced by KURABO […] LTD.; M254500) was added to the wells. Subsequently, the plate was incubated for 24 hours at a temperature of 37° C. in a 5% CO2 environment.
(§2) Sirolimus was added to the respective wells so as to have a final concentration of 0 nM (that is, no sirolimus is added to a culture medium), 1 nmol/L, 10 nmol/L, and 20 nmol/L, respectively. The plates were incubated for 24 hours or 48 hours at a temperature of 37° C. in a 5% CO2 environment.
(§3) From the wells thus incubated, the medium 254 was removed. Then, an operation of adding PBS to the wells and removing the PBS from the wells was carried out three times to wash the melanocytes with the PBS.
(§4) To the wells from which the PBS had been removed, 175 μL of an RNA lysis buffer was added. The RNA lysis buffer is attached to a kit of an SV Total RNA Solution System (manufactured by Promega Corporation; Z3105).
(§5) Melanocytes were peeled off the plate with use of a cell scraper.
(§6) The RNA lysis buffer containing melanocytes was collected into a 1.5 mL Eppendorf tube. Then, RNAs were extracted from the collected buffer.
(§7) Real-time RT-PCR was carried out with use of the RNAs to detect expression of mRNAs of MITF, mRNAs of TYR, mRNAs of TYRP1, and mRNAs of GAPDH. An expression level of the mRNAs of MITF, an expression level of the mRNAs of TYR, and an expression level of the mRNAs of TYRP1 were each calculated as a relative expression level with respect to an expression level of the mRNA of GAPD.
(§8) This experiment was carried out three times to calculate an average value and a standard deviation of relative expression levels of mRNAs of each of MITF, TYR, and TYRP1. Whether or not there was a statistically significant difference between test results obtained with use of the respective external medicines was checked by calculating a p value with use of a Student's t-test having no correspondence. In a case where the p value was less than 0.05, a statistically significant difference was recognized.
(§9) To detect expression of the mRNAs of MITF, TagMan® Gene Expression Assays (produced by Applied biosystems, Inc.; Hs00165156_m1) was used. To detect expression of the mRNAs of TYR, TagMan® Gene Expression Assays (produced by Applied biosystems, Inc.; Hs00165976_m1). To detect expression of the mRNAs of TYRP1, TagMan® Gene Expression Assays (produced by Applied biosystems, Inc.; Hs00167051_m1) was used. To detect expression of the mRNAs of GAPDH, TagMan® Gene Expression Assays (produced by Applied biosystems, Inc.; Hs99999905_m1) was used.

VEGF [1] = assay: inhibition of VEGF expression in human fibroblast; assay type: cell-based; conditions: 20 nM, 72 hours
Protocol: (§10) A cell of angiofibroma, a human fibroblast, and HaCat, each of which was isolated from a patient with tuberous sclerosis complex, were used. Isolation of the cell of angiofibroma was carried out by removing angiofibroma from a patient who wished the angiofibroma to be removed and then using the primary culturing method. […] HaCat was purchased from German Cancer Research Center (dkfz). The cells obtained from the respective patients were used with the patients' consent.
(§11) The cell of angiofibroma, the human fibroblast, and HaCat were each cultured with use of a DME culture medium at a temperature of 37° C. in a 5% CO2 environment. During the culture of these cells, sirolimus was added to each of the culture mediums so as to have a final concentration of 0 nM (that is, no sirolimus is added to a culture medium (a control)), 1 nM, 10 nM, or 20 nM. The cells were each incubated again at a temperature of 37° C. in a 5% CO2 environment, and a culture supernatant was collected […] after sirolimus was added. A concentration of VEGF in the collected culture supernatant was measured with use of a kit (Quantikine® Human VEGF manufactured by R&D SYSTEMS®) for detecting VEGF.

VEGF [2] = assay: inhibition of VEGF expression in HaCat; assay type: cell-based; conditions: 20 nM, 72 hours
Protocol: as §10, §11

TYRP1 = assay: expression level of mRNA of TYRP1 in melanocytes (real-time RT-PCR); assay type: cell-based
Protocol: as §1, §2, §3, §4, §5, §6, §7, §8, §9

TYR = assay: expression level of mRNA of TYR in melanocytes (real-time RT-PCR); assay type: cell-based
Protocol: as §1, §2, §3, §4, §5, §6, §7, §8, §9

VEGF [3] = assay: inhibition of VEGF expression in cell of angiofibroma; assay type: cell-based, human
Protocol: as §10, §11

Structure (SMILES): CO[C@H]1C[C@@H]2CC[C@@H](C)[C@@](O)(O2)C(=O)C(=O)N2CCCC[C@H]2C(=O)O[C@H]([C@H](C)C[C@@H]2CC[C@@H](O)[C@H](OC)C2)CC(=O)[C@H](C)/C=C(\C)[C@@H](O)[C@@H](OC)C(=O)[C@H](C)C[C@H](C)/C=C/C=C/C=C/1C [sirolimus]
- relative expression levels of MITF (MITF; 1 nM, 24 hours, relative to GAPDH, untreated 24 h 100.00±3.37): 152.48±3.47
- relative expression levels of MITF (MITF; 1 nM, 48 hours, untreated 48 h 107.95±1.38): 129.41±3.43
- relative expression levels of MITF (MITF; 20 nM, 24 hours, untreated 24 h 100.00±3.37): 152.18±14.75
- relative expression levels of MITF (MITF; 20 nM, 48 hours, untreated 48 h 107.95±1.38): 141.56±3.52
- concentration of VEGF decreased to (% of untreated) (VEGF [1]): about 30%
- rate of decrease in concentration of VEGF (ratio treated/untreated) (VEGF [1]): 0.336
- concentration of VEGF in culture supernatant (VEGF [1]; control 1492.7): 501.3 pg/mL
- concentration of VEGF decreased to (% of untreated) (VEGF [2]): about 40%
- rate of decrease in concentration of VEGF (ratio treated/untreated) (VEGF [2]): 0.405
- concentration of VEGF in culture supernatant (VEGF [2]; control 1849.9): 749.9 pg/mL
- relative expression levels of TYRP (TYRP1; 1 nM, 24 hours, untreated 24 h 1.031±0.027): 1.333±0.055
- relative expression levels of TYRP (TYRP1; 1 nM, 48 hours, untreated 48 h 1.338±0.029): 1.450±0.028
- relative expression levels of TYRP (TYRP1; 20 nM, 24 hours, untreated 24 h 1.031±0.027): 1.652±0.031
- relative expression levels of TYRP (TYRP1; 20 nM, 48 hours, untreated 48 h 1.338±0.029): 1.514±0.124
- relative expression levels of TYR (TYR; 1 nM, 24 hours, untreated 24 h 0.640±0.036): 0.820±0.047
- relative expression levels of TYR (TYR; 1 nM, 48 hours, untreated 48 h 0.771±0.009): 0.760±0.044
- relative expression levels of TYR (TYR; 20 nM, 24 hours, untreated 24 h 0.640±0.036): 0.921±0.029
- relative expression levels of TYR (TYR; 20 nM, 48 hours, untreated 48 h 0.771±0.009): 0.858±0.022
- concentration of VEGF in culture supernatant (VEGF [3]; 1 nM, 48 hours, untreated 260.2857): 113.1428 pg/mL
- concentration of VEGF in culture supernatant (VEGF [3]; 10 nM, 48 hours, untreated 260.2857): 92.4285 pg/mL
- concentration of VEGF decreased to (% of untreated) (VEGF [3]; 20 nM, 72 hours): about 20%
- rate of decrease in concentration of VEGF (ratio treated/untreated) (VEGF [3]; 20 nM, 72 hours): 0.196
- concentration of VEGF in culture supernatant (VEGF [3]; 20 nM, 72 hours, control 858.4): 168 pg/mL

— patent publication US20130317053A1, “EXTERNALLY-USED DRUG FOR TREATING SKIN DISORDER AND METHOD FOR PRODUCING SAME” (OSAKA UNIVERSITY, priority 2011, published 2013)
